Experimental data as given in patent US20060128762A1, “Medicinal composition and method for treating malignant tumor and utilization thereof” (D.Western Therapeutics Institute, priority 2002, published 2006).

Tests used:
[1] = system: Murine Monocytic Leukemia P388; assay: Antitumor effect on P388 murine monocytic leukemia transplanted into mouse (survival); assay type: in vivo; parameters: MST (median survival time): unit not given here; settings: for MST (median survival time) / Survival number on day 50 / T/C (%): N = 6; for survival rate on day 5: administered alone
Protocol: Monocytic leukemia cell line P388 was purchased from Japanese Foundation for Cancer Research, Cancer Chemotherapy Center. The cryopreserved tumor was transplanted intraperitoneally into DBA/2 mouse (Japan SLC, Inc.). When the abdominal bloating was observed, ascites was removed and subjected to the test.
(§1) Compound 2 was weighed and ground down in an agate motor. It was then suspended slowly in the motor by adding 0.5% aqueous methylcellulose solution (M.C.) step by step to obtain 10 mg/ml suspension. The suspension was further diluted with M.C. to obtain a normal concentration and stored at 4° C. CDDP was dissolved and diluted with physiological saline. Immediately after preparation, the CDDP solution was subjected to test.
Male 4-week-old DBA/2 mice (n=10, 2 mice for the present test) and male 4-week-old CDF1 mice (DBA/2×BALB/c) (n=156) were purchased from Japan SLC, Inc., and used six animals per group. Animals were kept in a chamber maintained at room temperature of 21 to 25° C. and humidity of 45-65% with a given lighting time intervals (light period: 7:00 to 19:00; dark period: 19:00 to 7:00) and allowed to access freely to feed (F-2, Funabashi Nojo) and tap water. The animals purchased were used in the test after subjecting to taming and quarantine for 1 week.
The cryopreserved P388 cell lines were transplanted intraperitoneally into DBA/2 mouse. When the abdominal bloating was observed, ascites containing cancer cells were removed. The ascites was diluted with phosphate-buffered physiological saline (PBS, pH7.4) until the cell concentration became 5×10^6 cells/ml. The resultant solution (0.2 ml) was transplanted intraperitoneally into CDF1 mouse (1×10^6 cells/mouse). The drug was administered to mouse (0.1 ml/10 g body weight) on and after the next day of transplantation.
Compound 2 was administered orally and CDDP intraperitoneally. Animals of control group were untreated because of diversity of administration route and complexity of administration schedule.
The administration was started on the next day (day 1) of transplantation of tumor according to the protocol shown in Table 1, i.e., day 1; day 2; or day 1 and 2.

[2] = Stability of the suspension in 0.5% aqueous methylcellulose solution; assay type: physicochemical; settings: suspension in 0.5% aqueous methylcellulose solution (M.C.), in a cold place
Protocol: as §1, with “test. It is assured that the suspension of Compound 2 in M.C. is homogeneous and stable for 14 days in a cold place.” for “test.”

[3] = Compound 2 25 mg/kg p.o on day 1
[4] = Compound 2 25 mg/kg p.o on day 2
[5] = Compound 2 50 mg/kg p.o on day 1
[6] = Compound 2 50 mg/kg p.o on day 2
[7] = Compound 2 100 mg/kg p.o on day 1
[8] = Compound 2 100 mg/kg p.o on day 2

## N.N.[Cl][Pt][Cl] [CDDP, cis-platinum (II) diamine chloride, reference compound]
[1]; CDDP 2.5 mg/kg i.p on day 1
  MST (median survival time): 14.5
  Survival number on day 50: 0
  T/C (%): 145%
[1]; CDDP 2.5 mg/kg i.p on day 2
  MST (median survival time): 15.5
  Survival number on day 50: 0
  T/C (%): 155%
[1]; CDDP 5 mg/kg i.p on day 1
  MST (median survival time): 17
  Survival number on day 50: 0
  T/C (%): 170%
[1]; CDDP 5 mg/kg i.p on day 2
  MST (median survival time): 17
  Survival number on day 50: 0
  T/C (%): 170%
[1]; CDDP 10 mg/kg i.p on day 1
  MST (median survival time): 17
  Survival number on day 50: 0
  T/C (%): 170%
[1]; CDDP 10 mg/kg i.p on day 2
  MST (median survival time): 17
  Survival number on day 50: 0
  T/C (%): 170%
[1]
  survival rate on day 5: not observed

## COc1ccc(S(=O)(=O)N(C(C)=O)c2ccccc2/C=C/c2cc[n+]([O-])cc2)cc1 [Compound 2, (E)-4-[2-[2-[N-acetyl-N-[(p-methoxyphenyl)sulfonyl]-amino]phenyl]ethenyl]pyridine 1-oxide]
[1]; [3]
  MST (median survival time): 12.5
  Survival number on day 50: 0
  T/C (%): 125%
[1]; [4]
  MST (median survival time): 13
  Survival number on day 50: 0
  T/C (%): 130%
[1]; [5]
  MST (median survival time): 13
  Survival number on day 50: 0
  T/C (%): 130%
[1]; [6]
  MST (median survival time): 13
  Survival number on day 50: 0
  T/C (%): 130%
[1]; [7]
  MST (median survival time): 16.5
  Survival number on day 50: 0
  T/C (%): 165%
[1]; [8]
  MST (median survival time): 15
  Survival number on day 50: 0
  T/C (%): 150%
[1]
  survival rate on day 5: not observed
[2]
  time for which the suspension in M.C. is homogeneous and stable: 14 days
